# Measured values published in US11679123B2, “N-acylated hyaluronic acid for hyperuricemia and gouty arthritis” (Queen's University at Kingston, priority 2018, dated 2023).
# How the values were obtained:
# [1] = system: inflammation factors; assay: Serum inflammation factors by ELISA in rats with MSU-induced acute gout; type: in vivo, Wistar rats; details: for 6-Keto-PGF1α / IFN-γ / IL-1α / IL-1β / IL-6 / IL-8 / IL-10 / IL-16 / IP-10 / MCP-1 / MIP-1α / NF-κB / PGE2 / TNF-α / TNF-β: serum, MSU-induced acute gout rats, mean ± S.D., n=10
# Experimental: An experimental model of MSU-induced gouty arthritis was used in order to evaluate the anti-inflammatory activities of BHA. Rats were randomly divided into five groups (n=10), include a control group (NC), a model group (MC), a 0.3 mg/kg colchicine group (COL), a 10 μg BHA group (10BHA) and a 50 μg BHA group (50BHA). MSU crystals were suspended in 0.9% sterile saline (30 mg/mL) prior to use. The colchicine group rats were orally administrated colchicine (0.3 mg/kg) for 8 days, and all rats except for the control group were injected with 3 mg of MSU (Sigma, USA) at the 6th day into the right ankle synovial space 1 h after gavage feeding. Meanwhile a turbid sample of MSU mixed with 100 μg of BHA or 500 μg of BHA per mL of solution for 10BHA rats or 50BHA rats. At the 8th day, 1 h after the administration of the final agents, blood was sampled from the caudal veins of the rats and the right ankle joints of the rats were collected and fixed in 4% paraformaldehyde. Serum was separated and stored at −80° C. prior to analysis (FIG. 2A, E).
# The serum levels of interleukin-1α (IL-1α, 41734), IL-1β (43360), interleukin-6 (IL-6, 41731), interleukin-8 (IL-8, 41716), IL-10 (41736), interleukin-16 (IL-16, 41628), C—X—C motif chemokine 10 (CXCL10, 41570), monocyte chemoattractant protein 1 (MCP-1, 41640), macrophage inflammatory protein 1α (MIP-1α, 41645), interferon gamma (IFN-γ, 41739), TNF-α (41721), tumor necrosis factor-β (TNF-β, 41673), nuclear factor κ-light-chain-enhancer of activated B cells (NF-κB, 43358), 6-keto-prostaglandin F-1α (6-Keto-PGF1α, 41809) and prostaglandin E2 (PGE2, 41609) in rats were determined by the ELISA method using related Elisa Kits (Yuanye Bio-Technology Co. Ltd, Shanghai, China) according to the manufacturer's instructions.
# [2] = system: factors related to oxidative stress; assay: Factors related to oxidative stress in serum and liver of hyperuricemia mice (ELISA); type: in vivo, Balb/C mice; details: for Liver CAT / Liver GSH-PX / Liver MDA / Liver ROS / Liver SOD / Serum CAT / Serum GSH-PX / Serum MDA / Serum ROS / Serum SOD: hyperuricemia mice, mean ± S.D., n=10
# Experimental: Due to the presence of uricase in mice, a hyperuricemic mouse model was established by using uricase inhibitor and large amounts of purine. Mice were randomly divided into five groups (n=10), including the control group (NC), model group (MC), 20 mg/kg of AL (Shimao Tianjie Pharmaceutical Co. Ltd, Jiangsu, China) group, 10 μg BHA group (10BHA) and 50 μg BHA group (50BHA). Oral administration of AL and intraperitoneal injection of BHA were administered according to the required dose, and all mice were gavage fed 20 g/kg yeast extract powder 12 h prior to the administration of AL and BHA except for NC mice for 8 days. From the 6th to 8th day, 1-h prior to AL and BHA administration, 300 mg/kg of OXO (Sigma, USA) was intraperitoneally injected to all of the mice except those in the control group. At 1 h after the final drug administration, blood was sampled from caudal veins of the mice, serum was separated and their livers were quickly collected (FIG. 3A, E). All samples were stored at −80° C. until assay measurements were performed.
# The levels of reactive oxygen species (ROS, 43355), malondialdehyde (MDA, 43124) glutathione peroxidase (GSH-Px, 43390), superoxide dismutase (SOD, 43125), catalase (CAT, 43356), creatinine (Cr, 43353) and blood urea nitrogen (BUN, 43352) in the serum and livers of mice were determined using ELISA Kits (Yuanye Bio-Technology Co. Ltd, Shanghai, China) according to the manufacturer's instructions.
# [3] = 10 μg BHA intra-articular with MSU (10BHA)
# [4] = 50 μg BHA intra-articular with MSU (50BHA)
# [5] = 10 μg BHA intraperitoneal (10BHA)
# [6] = 50 μg BHA intraperitoneal (50BHA)
substance,measurement,setting,value
N-butyrylated HA [BHA],decrease of serum IL-8 compared to rats injected with MSU,"[1]; 10 μg BHA, P<0.05",7.13%
same,decrease of serum MCP-1 compared to rats injected with MSU,"[1]; 10 μg BHA, P<0.05",7.76%
same,increase of serum IL-10 compared to rats injected with MSU,"[1]; 10 μg BHA, P<0.05",9.49%
same,decrease of serum IFN-γ compared to rats injected with MSU,"[1]; 50 μg BHA, P<0.05",33.18%
same,decrease of serum IL-1β compared to rats injected with MSU,"[1]; 50 μg BHA, P<0.05",5.56%
same,decrease of serum IL-8 compared to rats injected with MSU,"[1]; 50 μg BHA, P<0.05",6.55%
same,decrease of serum MCP-1 compared to rats injected with MSU,"[1]; 50 μg BHA, P<0.05",15.58%
same,6-Keto-PGF1α,[1]; [3],257 ± 20.8
same,IFN-γ,[1]; [3],107.4 ± 7.6 pg/mL
same,IL-1α,[1]; [3],71.5 ± 11.2 pg/mL
same,IL-1β,[1]; [3],19.6 ± 1.6 pg/mL
same,IL-6,[1]; [3],78.5 ± 5.6 pg/mL
same,IL-8,[1]; [3],213.8 ± 11.4 pg/mL
same,IL-10,[1]; [3],12 ± 0.9 pg/mL
same,IL-16,[1]; [3],399.3 ± 14.8 pg/mL
same,IP-10,[1]; [3],154.3 ± 18^ pg/mL
same,MCP-1,[1]; [3],321.2 ± 20.5 pg/mL
same,MIP-1α,[1]; [3],282.8 ± 23.6 pg/mL
same,NF-κB,[1]; [3],589.8 ± 104. pg/mL
same,PGE2,[1]; [3],209.7 ± 17.3 pg/mL
same,TNF-α,[1]; [3],155.9 ± 11.4 pg/mL
same,TNF-β,[1]; [3],139.1 ± 25.7 pg/mL
same,6-Keto-PGF1α,[1]; [4],262 ± 10.8
same,IFN-γ,[1]; [4],75.4 ± 31.7 pg/mL
same,IL-1α,[1]; [4],77.4 ± 13 pg/mL
same,IL-1β,[1]; [4],18.8 ± 0.8 pg/mL
same,IL-6,[1]; [4],75 ± 5.3 pg/mL
same,IL-8,[1]; [4],216.6 ± 11.6 pg/mL
same,IL-10,[1]; [4],11.6 ± 1.1 pg/mL
same,IL-16,[1]; [4],401.2 ± 25.1 pg/mL
same,IP-10,[1]; [4],150.5 ± 7.5 pg/mL
same,MCP-1,[1]; [4],292 ± 27.8 pg/mL
same,MIP-1α,[1]; [4],283.9 ± 12.7 pg/mL
same,NF-κB,[1]; [4],513 ± 74.1 pg/mL
same,PGE2,[1]; [4],193.2 ± 12.7 pg/mL
same,TNF-α,[1]; [4],152.7 ± 12.1 pg/mL
same,TNF-β,[1]; [4],129 ± 21.9 pg/mL
same,decrease of ROS levels in the liver,"[2]; 10 μg BHA, P<0.01",8.04%
same,decrease of ROS levels in the serum,"[2]; 10 μg BHA, P<0.01",14.87%
same,improvement of liver SOD,"[2]; 10 μg BHA, P<0.05",12.77%
same,decrease of ROS levels in the liver,"[2]; 50 μg BHA, P<0.05",9.59%
same,decrease of ROS levels in the serum,"[2]; 50 μg BHA, P<0.05",14.63%
same,improvement of liver SOD,"[2]; 50 μg BHA, P<0.05",13.69%
same,Liver CAT,[2]; [5],13.1 ± 1.4 U/mg
same,Liver GSH-PX,[2]; [5],78.8 ± 8^ U/mg
same,Liver MDA,[2]; [5],3.4 ± 0.2 nmol/mg
same,Liver ROS,[2]; [5],70.8 ± 3.7 U/mg
same,Liver SOD,[2]; [5],56.8 ± 5.8 U/mg
same,Serum CAT,[2]; [5],43.3 ± 4.6 U/mL
same,Serum GSH-PX,[2]; [5],246.8 ± 10.2 U/mL
same,Serum MDA,[2]; [5],10.4 ± 0.5 nmol/mL
same,Serum ROS,[2]; [5],226.6 ± 17.9 U/mL
same,Serum SOD,[2]; [5],166.6 ± 11.8 U/mL
same,Liver CAT,[2]; [6],14.1 ± 1.5 U/mg
same,Liver GSH-PX,[2]; [6],77.9 ± 7.3 U/mg
same,Liver MDA,[2]; [6],3.5 ± 0.2 nmol/mg
same,Liver ROS,[2]; [6],69.6 ± 7.1 U/mg
same,Liver SOD,[2]; [6],57.2 ± 4.4 U/mg
same,Serum CAT,[2]; [6],41.5 ± 6^ U/mL
same,Serum GSH-PX,[2]; [6],231.4 ± 13.3 U/mL
same,Serum MDA,[2]; [6],10.5 ± 0.3 nmol/mL
same,Serum ROS,[2]; [6],227.2 ± 17.9 U/mL
same,Serum SOD,[2]; [6],161.2 ± 8 U/mL
